# Results taken from patent publication US20230241257A1, “BIOTIN-MODIFIED DIMER AND USE THEREOF” (THE UNIVERSITY OF TOKYO, priority 2020, published 2023).
# System: human stomach cancer cells (MKN-45)
# Assay: Experiment 7: pharmacokinetics of ^211At-psyche-BR in the absence of Cupid-scFv antibody in MKN-45 cancer-bearing mouse models
# Type: in vivo, mice (BALB/cSlc nu/nu)
# Conditions: no Cupid-scFv antibody
# Experimental: The present experiment used human stomach cancer cells (MKN-45) expressing carcinoembryonic antigen (CEA). 9-week-old male immunodeficient mice (BALB/cSlc nu/nu) were used. MKN-45 cells (1×10^7/0.1 ml) were transplanted into the mice's subcutis on the right shoulder dorsal side to produce cancer-bearing mouse models. The mice were divided into four groups at the time the tumor volume became a predetermined size (on Day 19 after the transplantation), and ^211At-psyche-BR was administered via the caudal vein of each mouse. One minute, 1 hour, 6 hours, and 24 hours after administration of the ^211At-psyche-BR, the mice were euthanized by collecting whole blood from the heart of each mouse under isoflurane anesthesia, and tumor tissues and normal tissues/organs were then excised. Normal tissues/organs: muscle (right gastrocnemius muscle), heart, lung, spleen, pancreas, testis (both sides), stomach, stomach contents, small intestine (not including contents), large intestine (not including contents), liver, kidney, submandibular gland, thyroid gland (together with trachea), bone (right femur), and cerebrum. After that, the weights of blood, plasma, tumor, and normal tissues/organs were measured, and the radioactivity thereof was then measured using a γ counter. The amounts of the ^211At-psyche-BR (radioactivity) accumulated in the blood, plasma, urine, tumor, and normal tissues/organs were calculated. That is to say, the rates (% ID/g) of the ^211At-psyche-BR accumulated per unit weight (g) of the blood, plasma, urine, tumor, and normal tissues/organs, in the administered ^211At-psyche-BR were shown. Regarding accumulation of the ^211At-psyche-BR in the thyroid gland, since the weight of the thyroid gland could not be precisely measured, it was shown that the rate (% ID) of the ^211At-psyche-BR accumulated in the thyroid gland in the administered ^211At-psyche-BR.
smiles,measurement,setting,value
N=C1N[C@H]2[C@H](CS[C@H]2CCCCC(=O)NCCCCCC(=O)Nc2cc(NC(=O)CCCCCNC(=O)CCCC[C@@H]3SC[C@@H]4NC(=N)N[C@@H]43)cc(C(=O)NCCOCCOCCNC(=O)c3cccc([211At])c3)c2)N1 [^211At-psyche-B],Accumulation in the blood,after 1 minute,13.5±1.1 % ID/g
same,Accumulation in the kidney,after 1 minute,72.7±5.6 % ID/g
same,Accumulation in the liver,after 1 minute,51.1±5.9 % ID/g
same,Accumulation in the tumor,after 1 minute,0.3±0.04 % ID/g
same,Accumulation in the blood,after 1 hour,2.1±0.2 % ID/g
same,Accumulation in the kidney,after 1 hour,77.9±2.1 % ID/g
same,Accumulation in the liver,after 1 hour,30.8±3.3 % ID/g
same,Accumulation in the tumor,after 1 hour,0.4±0.02 % ID/g
same,Accumulation in the blood,after 6 hours,1.0±0.2 % ID/g
same,Accumulation in the kidney,after 6 hours,32.1±8.2 % ID/g
same,Accumulation in the liver,after 6 hours,19.6±0.5 % ID/g
same,Accumulation in the tumor,after 6 hours,0.8±0.09 % ID/g
same,Accumulation in the thyroid gland,after 6 hours of administration,0.29±0.05 % ID
same,Accumulation in the blood,after 24 hours,0.2±0.04 % ID/g
same,Accumulation in the kidney,after 24 hours,3.0±0.1%
same,Accumulation in the liver,after 24 hours,5.0±0.2%
same,Accumulation in the tumor,after 24 hours,0.4±0.02%
